From patent publication US20210198277A1, “AMINE-SUBSTITUTED ARYL OR HETEROARYL COMPOUNDS” (Epizyme, Inc., priority 2016, published 2021)

biological target: T1, EHMT2 (Homo sapiens, UniProt Q96KQ7); experiment: MDA-MB-231 H3K9me2 in-cell Western assay (EHMT2 ICW); assay type: cell-based; conditions: Table VI; read-out: EHMT2 ICW IC50
T1 construct: host or cells: MDA-MB-231
T1 sequence (Q96KQ7 1-1210): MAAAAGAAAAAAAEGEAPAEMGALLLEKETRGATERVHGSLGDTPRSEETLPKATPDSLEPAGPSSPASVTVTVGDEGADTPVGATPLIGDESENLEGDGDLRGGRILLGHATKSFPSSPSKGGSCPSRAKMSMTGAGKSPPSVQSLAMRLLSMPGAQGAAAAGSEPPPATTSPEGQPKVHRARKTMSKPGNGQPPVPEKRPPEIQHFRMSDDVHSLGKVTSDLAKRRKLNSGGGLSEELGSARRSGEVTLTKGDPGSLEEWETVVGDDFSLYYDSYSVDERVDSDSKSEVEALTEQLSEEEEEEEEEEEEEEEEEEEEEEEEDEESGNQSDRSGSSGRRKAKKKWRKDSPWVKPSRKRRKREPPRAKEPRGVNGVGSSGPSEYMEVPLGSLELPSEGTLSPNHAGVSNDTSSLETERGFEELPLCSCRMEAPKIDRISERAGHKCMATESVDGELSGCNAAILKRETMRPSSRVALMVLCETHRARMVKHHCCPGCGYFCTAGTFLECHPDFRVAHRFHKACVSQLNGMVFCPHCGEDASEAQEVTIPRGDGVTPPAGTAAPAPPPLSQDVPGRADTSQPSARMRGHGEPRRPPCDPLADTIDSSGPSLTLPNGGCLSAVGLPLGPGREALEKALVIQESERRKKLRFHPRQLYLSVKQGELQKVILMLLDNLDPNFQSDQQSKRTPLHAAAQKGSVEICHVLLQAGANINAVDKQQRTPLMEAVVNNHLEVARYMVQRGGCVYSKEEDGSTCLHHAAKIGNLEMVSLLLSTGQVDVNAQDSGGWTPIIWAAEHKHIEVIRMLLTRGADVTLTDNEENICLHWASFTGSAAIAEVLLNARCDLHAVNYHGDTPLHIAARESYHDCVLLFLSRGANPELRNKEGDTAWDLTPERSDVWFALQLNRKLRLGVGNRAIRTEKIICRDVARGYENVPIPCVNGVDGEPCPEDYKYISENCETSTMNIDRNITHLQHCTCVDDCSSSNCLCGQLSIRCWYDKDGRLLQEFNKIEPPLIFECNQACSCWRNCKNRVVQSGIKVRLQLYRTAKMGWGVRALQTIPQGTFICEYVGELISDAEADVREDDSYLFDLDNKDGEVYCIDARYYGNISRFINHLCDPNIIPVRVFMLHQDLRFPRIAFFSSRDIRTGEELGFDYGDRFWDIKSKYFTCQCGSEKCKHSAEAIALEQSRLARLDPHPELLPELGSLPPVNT
Method in brief: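 Cells seeded at 3,000/well onto pre-dispensed compound; 30 min RT, then 48 h 37 °C/5% CO2. PFA fix, block, α-H3K9me2 1:800 o/n 4 °C, 800CW secondary + DRAQ5. Odyssey scan 700/800 nm; ratio → % inhibition → 4-parameter IC50.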

| IC50 | SMILES |
| --- | --- |
| 100 to 1000 nM | CNc1cc(C2CCN(C(C)=O)CC2)c2cc(OC)c(OCCCN3CCCC3)cc2n1 [Compound 809] |
| 1000 to 10000 nM | COc1cc2c(C)cc(N3CCCCC3)nc2cc1OCCCN1CCCC1 [Compound 810] |
| > 10000 nM | COc1cc2c(C)nc(N3CCCCC3)nc2cc1OCCCN1CCCC1 [Compound 811] |
| 100 to 1000 nM | COc1cc2c(C3CCN(C)CC3)cc(N3CCCCC3)nc2cc1OCCCN1CCCC1 [Compound 812] |
| > 10000 nM | CNc1cc(C)nc(Nc2ccc(OC)c(CN[C@H]3CCNC3)c2)n1 [Compound 813] |
| > 10000 nM | CNc1cc(C)nc(Nc2ccc(OC)c(CN[C@@H]3CCNC3)c2)c1 [Compound 814] |
| 100 to 1000 nM | CNc1cc(C2CCCCC2)c2cc(OC)c(OCCCN3CCCC3)cc2n1 [Compound 816] |
| 100 to 1000 nM | CNc1cc(C(C)C)c2cc(OC)c(OCCCN3CCCC3)cc2n1 [Compound 817] |
| > 10000 nM | COc1cc2c(C3CCOCC3)cc(=O)[nH]c2cc1OCCCN1CCCC1 [Compound 822] |
| 100 to 1000 nM | CNc1cc(CC2CCOCC2)c2cc(OC)c(OCCCN3CCCC3)cc2n1 [Compound 823] |
| 1000 to 10000 nM | COc1cc2c(C3CCOCC3)cc(N3CCCCC3)nc2cc1OCCCN1CCCC1 [Compound 824] |
| 1000 to 10000 nM | COc1cc2c(C3CCOCC3)cc(N(C)C)nc2cc1OCCCN1CCCC1 [Compound 825] |
| < 100 nM | CNc1cc(C2CCN(CCC(F)(F)F)CC2)c2cc(OC)c(OCCCN3CCCC3)cc2n1 [Compound 832] |
| 100 to 1000 nM | CNc1cc(C2CCN(CC(F)(F)F)CC2)c2cc(OC)c(OCCCN3CCCC3)cc2n1 [Compound 833] |
| 1000 to 10000 nM | COc1cc2c(C3CCN(C(C)=O)CC3)cc(C)nc2cc1OCCCN1CCCC1 [Compound 834] |
| 1000 to 10000 nM | CCS(=O)(=O)N1CCC(c2cc(C)nc3cc(OCCCN4CCCC4)c(OC)cc23)CC1 [Compound 836] |
| 1000 to 10000 nM | COc1cc2c(C3CCN(CC(F)(F)F)CC3)cc(C)nc2cc1OCCCN1CCCC1 [Compound 837] |
| 100 to 1000 nM | COc1cc2c(C3CCN(CCC(F)(F)F)CC3)cc(C)nc2cc1OCCCN1CCCC1 [Compound 838] |
| < 100 nM | CNc1cc(C2CCN(CCOC)CC2)c2cc(OC)c(OCCCN3CCCC3)cc2n1 [Compound 839] |
| > 10000 nM | COc1cc2c(C3CCN(CC(F)(F)F)CC3)nc(C)nc2cc1OCCCN1CCCC1 [Compound 841] |
| 100 to 1000 nM | CNc1cc(C)nc(Nc2ccc(OC)c(C#CC3CCNC3)c2)n1 (stereo not shown) [Compound 845] |
| 100 to 1000 nM | CNc1cc(C)nc(Nc2ccc(OC)c(C#CC3CCCN3)c2)n1 (stereo not shown) [Compound 846] |
| 1000 to 10000 nM | CNc1cc(C)nc(Nc2ccc(OC)c(C#CC3CCN(C)C3)c2)n1 (stereo not shown) [Compound 847] |
| 100 to 1000 nM | CNc1cc(C)nc(Nc2ccc(OC)c(C#CC3CCCN3C)c2)n1 (stereo not shown) [Compound 848] |
| > 10000 nM | CNC(=O)c1cc(C)nc(Nc2ccc(OC)c(OCCCN3CCCC3)c2)n1 [Compound 854] |
| 100 to 1000 nM | CNc1cc(C)c2cc(OC)c(C#CCN3CCCC3)cc2n1 [Compound 859] |
| > 10000 nM | CNc1cc(C)nc(Nc2ccc(OC)c(C#CCN3CCN(C)CC3)c2)n1 [Compound 860] |
| 100 to 1000 nM | COc1cc2c(C3CCN([C@@H]4CCOC4)CC3)cc(C)nc2cc1OCCCN1CCCC1 [Compound 863] |
